The values that follow come from US9108045B2, “Method and apparatus for optical inhibition of photodynamic therapy” (The General Hospital Corporation, priority 2007, dated 2015).

Data set [1] concerns anterior ear skin of swine. It is filed as in vivo. As to the method:
Studies of ALA metabolism and porphyrin accumulation rates have been performed in anterior ear skin of swine. Such tissue bears many similarities to facial skin tissue in humans with respect to size and location of relevant tissue layers and target regions such as hair follicles and sebaceous glands. Topical 20% ALA in a water/alcohol solution was applied to the skin tissue, and formation of photosensitizers was analyzed based on quantitative fluorescence analysis of porphyrins formed from the ALA.
Overall porphyrin fluorescence was not observed until about 30-45 minutes after application of the ALA solution, although epidermis fluorescence measurement was statistically significant after only 15 minutes following the ALA application. Between about 30 and 120 minutes following application of the ALA solution, epidermis, hair follicles, and sebaceous glands became progressively more fluorescent. […] Fluorescence in all sites reached a maximum intensity between about 75 and 180 minutes after application of the ALA solution.

Data set [2] concerns skin. Put plainly: Clinical suppression of superficial porphyrin synthesis by inhibiting light during ALA metabolism. It counts as in vivo. An excerpt: In further embodiments, superficial porphyrin accumulation resulting from topical application of ALA may be suppressed by blue light exposure during ALA metabolism. For example, a topical solution of 20% ALA can be applied to a region of skin. The region of skin can then be exposed to low level irradiance 410 nm blue light to inhibit accumulation of porphyrins. This light can be applied during the period of ALA metabolism, e.g., immediately after the application of the topical ALA solution or later in time. […] Here, clinical suppression refers to a diminished response of the tissue to treatment radiation in subsequent PDT procedures.

Data set [3] has as its system human skin. Put plainly: Example 1: suppression of epidermal porphyrin accumulation by blue light exposure during ALA metabolism. It is filed as in vivo. The following applies: 20% topical ALA, 410-nm blue light 1.47 mW/cm^2 during 2 hours incubation, then 632-nm light 100 J/cm^2.
Experimental: Suppression of epidermal porphyrin accumulation by blue light exposure during ALA metabolism, in accordance with exemplary embodiments of the present invention, was tested in humans. With reference to FIG. 6, a 20% topical ALA solution was applied to human skin 610, covered with aluminum foil 620, while only some uncovered areas received 410-nm blue light (1.47 mW/cm^2) 630 during the incubation time. A fluorescent photo 640 was taken after 2 hours of incubation, and 632-nm light (100 J/cm^2) was then applied to all areas 650. A clinical photograph 660 was taken after PDT treatment.
Data set [4] concerns skin. Put plainly: Example 1: cooling and heating plates applied to skin after topical and injected ALA; porphyrin synthesis and skin photosensitization. It counts as in vivo. As to the method:
When a skin surface is cooled, there can be a gradient of temperature such that ALA metabolism might favor the warm dermis. To examine this effect, cooling and heating plates were applied to skin after topical and injected ALA administration, and porphyrin synthesis and skin photosensitization were then determined.

In data set [5] the test system is skin of a pig. Put plainly: Example 2: blue light through attenuating films during ALA incubation; porphyrin accumulation by fluorescence. It counts as in vivo. The following applies: 20% topical ALA, 410 nm blue light 2.6 mW/cm^2 for 3 hours through attenuating films, 100% to 17% transmittance (0.4 mW/cm^2). The protocol:
In accordance with embodiments of the present invention, 20% topical ALA was applied to the skin of a pig. Nine different areas were divided and different attenuating films were placed over the skin during the entire incubation time (or the metabolism period). The attenuating films reduced the light transmittance allowing a range of irradiance varying from 100%, 56%, 44%, 35%, 26%, 21%, 19% to 17% of light during the incubation period.
Immediately after the drug application, a 410 nm blue light was irradiated through all the experiment sites at an irradiance of 2.6 mW/cm^2 for 3 hours. During this period, porphyrin accumulation was measured in each test area by digital fluorescence photography (˜410 nm excitation, >600 nm emission), and microscopically determined by fluorescence microscopy of skin biopsies (8 mm diameter) obtained prior to light exposure. After the 3 hours of incubation, red light at 635 nm exposure with 200 J/cm^2 fluence was delivered at 100 mW/cm^2 irradiance, provided by an LED array source (Omnilux, PhotoTherapeutics LTD, Cheshire UK). Measurements and biopsies were repeated after 24 hours, prior to euthanasia.

Data set [6] deals with moderate to severe inflammatory acne. It counts as in vivo, human. The following applies: both sides of the face. The protocol: A 20% ALA solution (Dusa Pharmaceutics) was applied topically to the patient's face. The right side of the patient's face was covered with saran wrap and aluminum foil for 3 hours of incubation (to provide a conventional PDT treatment), while blue light at very low intensity (an inhibiting radiation) was applied to the left side of the patient's face for 3 hours (using a Clearlight at […], provided about 2 meters from the patient).
After the incubation period, both sides of the face were irradiated with red light treatment radiation (635 nm wavelength, at about 180 J/cm^2, using an Aktilite). During the red light irradiation, the patient indicated a subjective pain score of about 9-10 (on a 0-10 scale, with 0 being no pain, 5 being moderate pain, and 10 being maximum pain) on the right side of their face receiving conventional PDT treatment.

With `NCC(=O)CCC(=O)O` [ALA, 5-aminolevulinic acid], the “fluorescence of hair follicles and sebaceous glands relative to other sites (trend)” value in data set [1] (in vivo) is “stronger fluorescence compared with epidermis and eccrine glands”. For the same molecule, the “time after application at which epidermis fluorescence measurement was statistically significant” value in data set [1] (swine) was 15 min. Moreover, in data set [1] (swine, in vivo), the “time after application at which fluorescence reached maximum intensity” value was in the range of 75 to 180 min, the “time after application until overall porphyrin fluorescence was observed” value was 30 to 45 min, the “time at which eccrine gland fluorescence was first detected” value is “about 30 minutes” and the “time at which sebaceous glands started to show fluorescence” value was in the range of 45 to 75 min. In data set [2] (red light 633 nm, irradiance about 14-40 mW/cm^2), the “clinical suppression of superficial porphyrin synthesis” value was “some clinical suppression”. Also, the “clinical suppression of epidermal and/or superficial porphyrin synthesis” value in data set [2] (topical 20% ALA, blue light 415 nm, irradiance about 10-30 mW/cm^2 during ALA metabolism) was “almost complete clinical suppression”. Also, the “suppression of photosensitizer formation” value in data set [2] (topical 20% ALA, blue light, irradiance about 60 μW/cm^2 to 3 mW/cm^2) is recorded as “Some suppression”. Besides, in data set [2] (topical 20% ALA, blue light, irradiance less than about 30 μW/cm^2), the “clinical suppression of photosensitizer formation” value is listed as “No clinical suppression”. The “porphyrin accumulation and subsequent PDT reactions” value in data set [3] is given as “suppressed”. Moreover, in data set [4] (skin cooling to less than about 20° C., topical and injected ALA), the “conversion of epidermal ALA to porphyrins” value is listed as “significantly suppress”. Moreover, in data set [4] (skin surface temperature 20° C.), the dermal porphyrin synthesis entry is on record as “partially suppressed”. Moreover, the “porphyrin accumulation under blue light” value in data set [5] is reported as “inhibition of porphyrin accumulation in all sites down to 17% light transmittance”. For the same molecule, in data set [6], the “acne outcome after four weeks” value was “no new inflammatory acne”.
